Assay results as given in PubChem BioAssay (NCI).
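48-hour exposure; five concentrations; linearly interpolated endpoints. At the GI50, growth is halved. TGI is the concentration that stops growth completely.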

Experiments:
Test in all cases: NCI anticancer screen, dose series, 48 h
NCI-H226 lung = system: NCI-H226 lung
K-562 leukemia = system: K-562 leukemia
SK-MEL-28 melanoma = system: SK-MEL-28 melanoma
IGROV1 ovarian = system: IGROV1 ovarian
NCI-H460 lung = system: NCI-H460 lung
MDA-MB-231 breast = system: MDA-MB-231 breast
CAKI-1 renal = system: CAKI-1 renal
UO-31 renal = system: UO-31 renal
HOP-62 NSCLC = system: HOP-62 NSCLC
ACHN renal = system: ACHN renal
PC-3 prostate = system: PC-3 prostate
OVCAR-4 ovarian = system: OVCAR-4 ovarian
RXF 393 renal = system: RXF 393 renal
RPMI-8226 leukemia = system: RPMI-8226 leukemia
U251 CNS = system: U251 CNS
NCI-H23 lung = system: NCI-H23 lung
SF-268 CNS = system: SF-268 CNS
NCI-H522 lung = system: NCI-H522 lung
MOLT-4 leukemia = system: MOLT-4 leukemia
SW-620 colon = system: SW-620 colon
LOX IMVI melanoma = system: LOX IMVI melanoma
OVCAR-8 ovarian = system: OVCAR-8 ovarian
TK-10 renal = system: TK-10 renal
OVCAR-3 ovarian = system: OVCAR-3 ovarian
BT-549 breast = system: BT-549 breast
SNB-19 CNS = system: SNB-19 CNS
HOP-92 NSCLC = system: HOP-92 NSCLC
SR leukemia = system: SR leukemia
MDA-MB-468 breast = system: MDA-MB-468 breast
SK-MEL-5 melanoma = system: SK-MEL-5 melanoma

SMILES: C=C1CCC2C3(C)COC(c4ccccc4F)OC3CCC2(C)C1CC(O)C1=CCOC1=O (centres undefined)
- TGI (NCI-H226 lung): 22.7 µM
- GI50 (K-562 leukemia): 5.7 µM
- TGI (K-562 leukemia): > 100 µM
- GI50 (SK-MEL-28 melanoma): 26.4 µM
- TGI (SK-MEL-28 melanoma): > 100 µM
- GI50 (IGROV1 ovarian): 24.2 µM
- TGI (IGROV1 ovarian): 69.1 µM
- GI50 (NCI-H460 lung): 25.4 µM
- TGI (NCI-H460 lung): > 100 µM
- GI50 (MDA-MB-231 breast): 16.9 µM
- TGI (MDA-MB-231 breast): 35.6 µM
- GI50 (CAKI-1 renal): 25 µM
- TGI (CAKI-1 renal): > 100 µM
- GI50 (UO-31 renal): 13.4 µM
- TGI (UO-31 renal): 54.1 µM
- GI50 (HOP-62 NSCLC): 23 µM
- TGI (HOP-62 NSCLC): 42.4 µM
- GI50 (ACHN renal): 13.4 µM
- TGI (ACHN renal): 26.2 µM
- GI50 (PC-3 prostate): 18.2 µM
- TGI (PC-3 prostate): > 100 µM
- GI50 (OVCAR-4 ovarian): 13.8 µM
- TGI (OVCAR-4 ovarian): 53.9 µM
- GI50 (RXF 393 renal): 14.1 µM
- TGI (RXF 393 renal): 30.9 µM
- GI50 (RPMI-8226 leukemia): 6.73 µM
- TGI (RPMI-8226 leukemia): > 100 µM
- GI50 (U251 CNS): 11.9 µM
- TGI (U251 CNS): 24.6 µM
- GI50 (NCI-H23 lung): 23.6 µM
- TGI (NCI-H23 lung): 73.9 µM
- GI50 (SF-268 CNS): 28.4 µM
- TGI (SF-268 CNS): > 100 µM
- GI50 (NCI-H522 lung): 6 µM
- TGI (NCI-H522 lung): 21.4 µM
- GI50 (MOLT-4 leukemia): 40.8 µM
- TGI (MOLT-4 leukemia): > 100 µM
- GI50 (SW-620 colon): 2100 nM
- TGI (SW-620 colon): 11.4 µM
- GI50 (LOX IMVI melanoma): 11.1 µM
- TGI (LOX IMVI melanoma): 23.1 µM
- GI50 (OVCAR-8 ovarian): 4.86 µM
- TGI (OVCAR-8 ovarian): 19.2 µM
- GI50 (TK-10 renal): 34.6 µM
- TGI (TK-10 renal): > 100 µM
- GI50 (OVCAR-3 ovarian): 9.68 µM
- TGI (OVCAR-3 ovarian): 26.6 µM
- GI50 (BT-549 breast): 5.9 µM
- TGI (BT-549 breast): 22 µM
- GI50 (SNB-19 CNS): 33.1 µM
- TGI (SNB-19 CNS): > 100 µM
- GI50 (HOP-92 NSCLC): 18.1 µM
- TGI (HOP-92 NSCLC): 45.4 µM
- GI50 (SR leukemia): 57.1 µM
- TGI (SR leukemia): > 100 µM
- GI50 (MDA-MB-468 breast): 4.71 µM
- TGI (MDA-MB-468 breast): 19.1 µM
- GI50 (SK-MEL-5 melanoma): 17.1 µM
- TGI (SK-MEL-5 melanoma): 39.4 µM
